The values that follow come from the supplement of paper PMC6723410.

Assay [1] has as its system GUMC-403. The assay can be described thus: AC50 for reduction of cell viability; higher = less potent. Particulars: 48 h.
Assay [2] deals with GUMC-403. As to the kind of experiment: viability at highest tested concentration (max response) relative to DMSO (% of DMSO control); higher = less cytotoxic. Conditions: library / dose series: MIPE library, 11-point 1:3 dilution; top concentration 46.1 µM; 48 h. A digest of the protocol: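 Patient-derived GUMC-403 papilloma cells grown by conditional reprogramming were plated at 700/well in 5 μL F + Y medium in 1536-well plates and incubated overnight at 37 °C. They then received 23 nL of MIPE 4.0 compounds by pin tool (11-point 1:3 series) for 48 h. CellTiter-Glo luminescence was read on a ViewLux and normalised with DMSO wells as 100% and empty wells as 0%. The value is viability at the highest tested concentration relative to DMSO control.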

The mark [3] stands for this setting: library / dose series: MIPE library, 11-point 1:3 dilution.

Consider `c1nc2c(NC3CCCCC3)nc(Nc3ccc(N4CCOCC4)cc3)nc2[nH]1`, for which the “AC50 for reduction of cell viability” value in the assay on GUMC-403 [1] (setting [3]) was 18.7 µM. The viability with GUMC-403 [2] was 31.3.

Regarding `Nc1ncnc2c1c(-c1cnc3[nH]ccc3c1)nn2C1CCCC1`, in the assay on GUMC-403 [1] (setting [3]), the “AC50 for reduction of cell viability” value is 8.33 µM. Further, in the assay with GUMC-403 [2], the viability was 7.41.

For `O=C1c2ccccc2-[n+]2ccc3c([nH]c4ccccc43)c21`, the “AC50 for reduction of cell viability” value with GUMC-403 [1] (setting [3]) is 4.18 µM. Besides, the viability in the assay on GUMC-403 [2] is 3.22.

Regarding `Cc1[nH]c2ccccc2c1CCNCc1ccc(/C=C/C(=O)NO)cc1`, the “AC50 for reduction of cell viability” value in the assay on GUMC-403 [1] (setting [3]) stood at 2.64 µM. In addition, the viability in the assay with GUMC-403 [2] amounted to 38.2.

For the compound `CNC(=O)c1ccccc1Nc1nc(Nc2ccc(N3CCOCC3)cc2OC)ncc1Cl`, the “AC50 for reduction of cell viability” value with GUMC-403 [1] (setting [3]) was found to be 1.48 µM. Also, the viability in the assay with GUMC-403 [2] amounted to 9.51.

Turning to `CCC1=C2CN3C(=O)\C4=C(/C=C3/C2=NC5=CC=C(O)C=C15)[C@@](O)(CC)C(=O)OC4`, the “AC50 for reduction of cell viability” value with GUMC-403 [1] (setting [3]) was found to be 4.69 µM. The viability in the assay on GUMC-403 [2] worked out at 78.2.

As to `CO[C@H]1/C=C\C=C(\C)C(=O)NC2=CC(=O)C(NCCN(C)C)=C(C[C@@H](C)C[C@H](OC)[C@H](O)[C@@H](C)/C=C(/C)[C@@H]1OC(N)=O)C2=O`, the “AC50 for reduction of cell viability” value in the assay with GUMC-403 [1] (setting [3]) is 1.18 µM. The compound further yielded a viability in the assay on GUMC-403 [2] of 5.25.

With `OCCCNc1cc(-c2ccnc(Nc3cccc(Cl)c3)n2)ccn1`, the “AC50 for reduction of cell viability” value in the assay with GUMC-403 [1] (setting [3]) came out at 0.105 µM. Besides, the viability in the assay with GUMC-403 [2] amounted to 63.6.

In the case of `Cn1cc(CNCC2CCN(c3ncc(C(=O)NO)cn3)CC2)c2ccccc21`, the “AC50 for reduction of cell viability” value in the assay with GUMC-403 [1] (setting [3]) stood at 2.96 µM. This compound yielded a viability in the assay with GUMC-403 [2] of 33.5.

For the compound `C[C@@H]1O[C@@H](O[C@H]2C[C@@H](O)[C@]3(CO)[C@H]4[C@H](O)C[C@]5(C)[C@@H](C6=CC(=O)OC6)CC[C@]5(O)[C@@H]4CC[C@]3(O)C2)[C@H](O)[C@H](O)[C@H]1O`, in the assay with GUMC-403 [1] (setting [3]), the “AC50 for reduction of cell viability” value was determined as 0.0296 µM. The viability in the assay with GUMC-403 [2] was 75.4.

As to `CC(=O)SCC(Cc1ccccc1)C(=O)NCC(=O)OCc1ccccc1` (stereo not drawn), the “AC50 for reduction of cell viability” value in the assay with GUMC-403 [1] (setting [3]) was 1.18 µM. The compound also came in with a viability with GUMC-403 [2] of 42.8.

Take `CN(C)c1ccc2cc(C(=O)N[C@@H](CCCNC(=N)CCl)C(=O)NCc3ccccc3)ccc2c1`: the “AC50 for reduction of cell viability” value in the assay on GUMC-403 [1] (setting [3]) stood at 20.9 µM. In the assay on GUMC-403 [2], this compound came in with a viability of 46.3.

Consider `Cc1n[nH]c2ccc(-c3cncc(OC[C@@H](N)Cc4ccccc4)c3)cc12`, for which the “AC50 for reduction of cell viability” value with GUMC-403 [1] (setting [3]) turned out to be 2.64 µM. Further, the viability in the assay on GUMC-403 [2] was 5.22.

As to `COc1cccc2cc(-c3nc(C4CCC(C(=O)O)CC4)n4ncnc(N)c34)[nH]c12` (stereo not drawn), in the assay on GUMC-403 [1] (setting [3]), the “AC50 for reduction of cell viability” value was 0.187 µM. The viability with GUMC-403 [2] worked out at 59.5.

Turning to `Cc1ncc(-c2ccnc(Nc3ccc([S+](C)(=O)[O-])cc3)n2)n1C(C)C`, the “AC50 for reduction of cell viability” value in the assay with GUMC-403 [1] (setting [3]) was 10.5 µM. The viability with GUMC-403 [2] came out at 47.8.

Regarding `CNC(=O)c1ccc(Nc2cc(Nc3ccccc3[S+](=O)([O-])C(C)C)c3cc[nH]c3n2)nc1`, the “AC50 for reduction of cell viability” value in the assay on GUMC-403 [1] (setting [3]) turned out to be 18.7 µM. In addition, the viability with GUMC-403 [2] amounted to 10.4.

Regarding `Cc1nc(Nc2n[nH]c3c2CN(C(=O)N[C@H](CN(C)C)c2ccccc2)C3(C)C)c2sccc2n1`, in the assay with GUMC-403 [1] (setting [3]), the “AC50 for reduction of cell viability” value was found to be 3.72 µM. Also, in the assay on GUMC-403 [2], the viability was 7.84.

Turning to `CNCC[C@H](Oc1cccc2ccccc12)c1cccs1`, the “AC50 for reduction of cell viability” value in the assay with GUMC-403 [1] (setting [3]) stood at 10.5 µM. This compound also showed a viability in the assay on GUMC-403 [2] of 36.

Turning to `CC(NCc1ccc2c(c1)[nH]/c(=N\C(=O)c1ccc(-c3cn[nH]c3)s1)n2CC(C)(C)O)C(C)(C)C` (stereo not drawn), in the assay on GUMC-403 [1] (setting [3]), the “AC50 for reduction of cell viability” value was 0.935 µM. The viability in the assay with GUMC-403 [2] came to 6.2.

With `CN[C@@H]1C[C@H]2O[C@@](C)([C@@H]1OC)n1c3ccccc3c3c4c(c5c6ccccc6n2c5c31)C(=O)N[C@H]4O`, the “AC50 for reduction of cell viability” value in the assay with GUMC-403 [1] (setting [3]) came out at 1.48 µM. Besides, the viability in the assay on GUMC-403 [2] is 8.86.

As for `CCN(CC)C(=S)SSC(=S)N(CC)CC`, in the assay with GUMC-403 [1] (library / dose series: NPC library, 8-point 1:5 dilution), the “AC50 for reduction of cell viability” value is 24.8 µM. The compound further registered a viability with GUMC-403 [2] of 58.9.

Take `COC1=CC(c2cc3ccccc3[nH]2)=N/C1=C/c1[nH]c(C)cc1C`: the “AC50 for reduction of cell viability” value in the assay with GUMC-403 [1] (setting [3]) was 10.5 µM. For the same compound, the viability in the assay on GUMC-403 [2] is 26.6.

For `C=CCNC1=C2C[C@@H](C)C[C@H](OC)[C@H](O)[C@@H](C)/C=C(\C)[C@H](OC(N)=O)[C@@H](OC)/C=C\C=C(/C)C(=O)NC(=CC1=O)C2=O`, the “AC50 for reduction of cell viability” value in the assay with GUMC-403 [1] (setting [3]) was determined as 4.18 µM. The compound further registered a viability in the assay on GUMC-403 [2] of 65.3.

Regarding `C[C@@H]1O[C@@H](O[C@H]\2CC[C@]\3(C)[C@@H]4CC[C@]5(C)[C@@H](CC[C@@]5(O)[C@H]4CCC3=C2)C/6=C/OC(=O)/C=C6)[C@H](O)[C@H](O)[C@@H]1O`, the “AC50 for reduction of cell viability” value in the assay on GUMC-403 [1] (setting [3]) is 0.0166 µM. For the same compound, in the assay with GUMC-403 [2], the viability was determined as 44.3.
